From the NIST ThermoML archive (doi:10.1016/j.jct.2019.03.040)

Experiment: molar heat capacity at constant pressure
Settings: 101.33 kPa, Liquid, Small sample (50 mg) DSC

CCOC(=O)CCC(C)=O [ethyl levulinate]
Settings	molar heat capacity at constant pressure [J/K/mol]
302.98 K	275.22
303.48 K	275.79
303.98 K	276.51
304.48 K	276.37
304.98 K	275.65
305.48 K	276.08
305.98 K	275.65
306.48 K	276.08
306.98 K	276.95
307.48 K	277.24
307.98 K	277.67
308.48 K	277.52
308.98 K	277.38
309.48 K	277.67
309.98 K	277.96
310.48 K	278.53
310.98 K	278.82
311.48 K	277.96
311.98 K	278.24
312.48 K	277.24
312.98 K	278.53
313.48 K	278.82
313.98 K	279.25
314.48 K	279.25
314.98 K	279.25
315.48 K	278.53
315.98 K	279.25
316.48 K	278.68
316.98 K	278.97
317.48 K	279.69
317.98 K	279.4
318.48 K	279.83
318.98 K	279.69
319.48 K	279.83
319.98 K	279.54
320.48 K	280.55
320.98 K	280.98
321.48 K	280.7
321.98 K	279.97
322.48 K	280.55
322.98 K	280.84
323.48 K	281.42
323.98 K	281.13
324.48 K	281.42
324.98 K	281.56
325.48 K	281.27
325.98 K	281.99
326.48 K	282.57
326.98 K	282.14
327.48 K	282.43
327.98 K	282.57
328.48 K	283.29
328.98 K	283.15
329.48 K	282.86
329.98 K	283.29
330.48 K	283.87
330.98 K	284.01
331.48 K	284.01
331.98 K	284.16
332.48 K	284.44
332.98 K	284.16
333.48 K	284.3
333.98 K	284.01
334.48 K	284.88
334.98 K	285.74
335.48 K	285.6
335.98 K	285.89
336.48 K	285.6
336.98 K	285.89
337.48 K	285.74
337.98 K	285.6
338.48 K	286.17
338.98 K	286.32
339.48 K	286.32
339.98 K	286.03
340.48 K	286.32
